From US8192962B2, “Processes for detecting toxic substances” (Daikin Industries, Ltd., priority 2001, dated 2012)

System: Metabolism protein genes
Test: DNA chip mRNA expression in yeast, metabolism protein genes (Table 7)
Type: cell-based, Saccharomyces cerevisiae S288C
Description: Yeast (Saccharomyces cerevisiae S288C (α SUC2mal mel gap2 CUP1)) were incubated at 25° C. on YPD medium (yeast extract 1%, polypepton 2%, glucose 2%). One of toxic chemical substances was added to the cells at logarithmic growth phase, and the cells were further incubated for two hours. Cells were cultured without any chemical substance in the same condition, and were used as control. Concentrations of the chemical substances were defined to inhibit the growth of the yeast but not lead to death.
After completion of the incubation, the culture was centrifuged to collect the cells. To the cells, sodium acetate buffer (50 mM sodium acetate, 10 mM EDTA, 1% SDS) was added, and the mixture was shaken at 65° C. for five minutes, followed by returning to room temperature, and obtaining the supernatant, of which the procedures were repeated two times. To the supernatant, ½ amount of a solution of phenol/chloroform was added, and the mixture was centrifuged to give a supernatant, which was added with an equal amount of chloroform, and the mixture was centrifuged to give a supernatant. To the supernatant, an equal amount of isopropanol containing 0.3 M sodium acetate was added, and the mixture was allowed to stand at room temperature for 30 minutes, after which the mixture was centrifuged to give a sediment of the whole RNAs. Seventy % ethanol was added to the sediment, and the mixture was again centrifuged to give a sediment, which was then dried and dissolved in water. mRNA was isolated from the whole RNAs as followings. In view of the fact that a poly A chain is attached to the 3′ terminus of mRNA, a polynucleotide having a poly T structure which was immobilized on the surface of latex beads was used to trap the mRNA, and then the mRNA was washed and eluted with spine column (Oligotex-dT30<Super>mRNA Purification Kit, Takara). Reverse transcription of the mRNA was conducted with a reverse transcriptase (Super Script II Reverse Transcriptase; catalogue No. 18064-014, GibcoBRL) using fluorescence-labeled nucleotides to give cDNAs that were introduced with Cy3-dUTP or Cy5-dUTP during the reverse transcription.
The labeled cDNAs were dissolved in TE buffer (10mM Tris-HCl/1 mM EDTA, pH8.0), and the solution was dropped on the DNA chip containing the whole genes of yeast (DNA Chip Research Inc. Japan) so that the cDNAs were hybridized on the DNA chip at 65° C. for over 12 hours. The fluoresces intensity of the DNA chip was read with a scanner, and the ratio relative to the fluorescence intensity resulting from the absence of chemical substance was estimated as the following, which is shown in Tables 1 to 9: […]

`N#Cc1c(Cl)c(Cl)c(Cl)c(C#N)c1Cl` [(9), 2,4,5,6-tetrachloro-1,3-benzenedicarbonitrile] was tested, and the “level of expressed mRNA in the presence/in the absence of chemical substance” value (yeast gene YMR261C) was 1.6, the “The level of expressed mRNA in the presence of chemical substance/The level of expressed mRNA in the absence of chemical substance” value (yeast gene YMR271C) was 8.0 and the “The level of expressed mRNA in the presence of chemical substance/The level of expressed mRNA in the absence of chemical substance” value (yeast gene YMR296C) was 0.4. For the same molecule, the “level of expressed mRNA in the presence/in the absence of chemical substance” value (yeast gene YMR323W) was 0.5, the “The level of expressed mRNA in the presence of chemical substance/The level of expressed mRNA in the absence of chemical substance” value (yeast gene YNL012W) was 3.3 and the “level of expressed mRNA in the presence/in the absence of chemical substance” value (yeast gene YNL025C) was 1.1. The “The level of expressed mRNA in the presence of chemical substance/The level of expressed mRNA in the absence of chemical substance” value (yeast gene YNL037C) was 0.6, the “The level of expressed mRNA in the presence of chemical substance/The level of expressed mRNA in the absence of chemical substance” value (yeast gene YNL045W) was 1.3 and the “The level of expressed mRNA in the presence of chemical substance/The level of expressed mRNA in the absence of chemical substance” value (yeast gene YNL104C) was 1.1. For the same molecule, the “The level of expressed mRNA in the presence of chemical substance/The level of expressed mRNA in the absence of chemical substance” value (yeast gene YNL106C) was 0.7, the “The level of expressed mRNA in the presence of chemical substance/The level of expressed mRNA in the absence of chemical substance” value (yeast gene YNL169C) was 1.1 and the “The level of expressed mRNA in the presence of chemical substance/The level of expressed mRNA in the absence of chemical substance” value (yeast gene YNL231C) was 2.2. For the same molecule, the “The level of expressed mRNA in the presence of chemical substance/The level of expressed mRNA in the absence of chemical substance” value (yeast gene YNL264C) was 3.3, the “The level of expressed mRNA in the presence of chemical substance/The level of expressed mRNA in the absence of chemical substance” value (yeast gene YNL322C) was 0.7 and the “The level of expressed mRNA in the presence of chemical substance/The level of expressed mRNA in the absence of chemical substance” value (yeast gene YNL331C) was 42.6. For the same molecule, the “The level of expressed mRNA in the presence of chemical substance/The level of expressed mRNA in the absence of chemical substance” value (yeast gene YNL332W) was 3.3, the “The level of expressed mRNA in the presence of chemical substance/The level of expressed mRNA in the absence of chemical substance” value (yeast gene YNR002C) was 3.9 and the “The level of expressed mRNA in the presence of chemical substance/The level of expressed mRNA in the absence of chemical substance” value (yeast gene YNR019W) was 1.8. For the same molecule, the “The level of expressed mRNA in the presence of chemical substance/The level of expressed mRNA in the absence of chemical substance” value (yeast gene YNR033W) was 3.6, the “The level of expressed mRNA in the presence of chemical substance/The level of expressed mRNA in the absence of chemical substance” value (yeast gene YNR059W) was 1.8 and the “The level of expressed mRNA in the presence of chemical substance/The level of expressed mRNA in the absence of chemical substance” value (yeast gene YNR071C) was 3.1. For the same molecule, the “The level of expressed mRNA in the presence of chemical substance/The level of expressed mRNA in the absence of chemical substance” value (yeast gene YOL058W) was 0.1, the “level of expressed mRNA in the presence/in the absence of chemical substance” value (yeast gene YOL086C) was 0.1 and the “The level of expressed mRNA in the presence of chemical substance/The level of expressed mRNA in the absence of chemical substance” value (yeast gene YOL126C) was 0.8. The “The level of expressed mRNA in the presence of chemical substance/The level of expressed mRNA in the absence of chemical substance” value (yeast gene YOL143C) was 0.8, the “The level of expressed mRNA in the presence of chemical substance/The level of expressed mRNA in the absence of chemical substance” value (yeast gene YOL153C) was 2.5 and the “level of expressed mRNA in the presence/in the absence of chemical substance” value (yeast gene YOL156W) was 2.3. For the same molecule, the “The level of expressed mRNA in the presence of chemical substance/The level of expressed mRNA in the absence of chemical substance” value (yeast gene YOL165C) was 46.9, the “level of expressed mRNA in the presence/in the absence of chemical substance” value (yeast gene YOR002W) was 0.8 and the “level of expressed mRNA in the presence/in the absence of chemical substance” value (yeast gene YOR085W) was 0.5. For the same molecule, the “The level of expressed mRNA in the presence of chemical substance/The level of expressed mRNA in the absence of chemical substance” value (yeast gene YOR099W) was 0.6, the “level of expressed mRNA in the presence/in the absence of chemical substance” value (yeast gene YOR108W) was 0.4 and the “level of expressed mRNA in the presence/in the absence of chemical substance” value (yeast gene YOR128C) was 0.3. For the same molecule, the “The level of expressed mRNA in the presence of chemical substance/The level of expressed mRNA in the absence of chemical substance” value (yeast gene YOR130C) was 2.0, the “The level of expressed mRNA in the presence of chemical substance/The level of expressed mRNA in the absence of chemical substance” value (yeast gene YOR136W) was 0.3 and the “level of expressed mRNA in the presence/in the absence of chemical substance” value (yeast gene YOR142W) was 1.1. The “level of expressed mRNA in the presence/in the absence of chemical substance” value (yeast gene YOR176W) was 1.0, the “level of expressed mRNA in the presence/in the absence of chemical substance” value (yeast gene YOR178C) was 0.2 and the “The level of expressed mRNA in the presence of chemical substance/The level of expressed mRNA in the absence of chemical substance” value (yeast gene YOR226C) was 1.3. For the same molecule, the “The level of expressed mRNA in the presence of chemical substance/The level of expressed mRNA in the absence of chemical substance” value (yeast gene YOR336W) was 1.7, the “The level of expressed mRNA in the presence of chemical substance/The level of expressed mRNA in the absence of chemical substance” value (yeast gene YOR347C) was 0.5 and the “The level of expressed mRNA in the presence of chemical substance/The level of expressed mRNA in the absence of chemical substance” value (yeast gene YOR377W) was 3.8. The “The level of expressed mRNA in the presence of chemical substance/The level of expressed mRNA in the absence of chemical substance” value (yeast gene YPL017C) was 3.0, the “level of expressed mRNA in the presence/in the absence of chemical substance” value (yeast gene YPL028W) was 1.2 and the “level of expressed mRNA in the presence/in the absence of chemical substance” value (yeast gene YPL057C) was 0.4. For the same molecule, the “level of expressed mRNA in the presence/in the absence of chemical substance” value (yeast gene YPL135W) was 0.5, the “The level of expressed mRNA in the presence of chemical substance/The level of expressed mRNA in the absence of chemical substance” value (yeast gene YPR026W) was 0.9 and the “level of expressed mRNA in the presence/in the absence of chemical substance” value (yeast gene YPR113W) was 0.4. For the same molecule, the “The level of expressed mRNA in the presence of chemical substance/The level of expressed mRNA in the absence of chemical substance” value (yeast gene YPR167C) was 76.6 and the “level of expressed mRNA in the presence/in the absence of chemical substance” value (yeast gene YPR183W) was 0.9.
